Measurements: patent US6277871A, “Inhibitors of protein isoprenyl transferases” (Abbott Laboratories, priority 1999, dated 2001)

molecular target: T1, Rat brain protein farnesyltransferase (Rattus norvegicus, UniProt Q02293+Q04631); test: in vitro inhibition of protein farnesyltransferase (Amersham scintillation proximity assay, biotin-K Ras B fragment substrate); type: biochemical; settings: 1 × 10^-7 M; protein farnesyltransferase; compared to uninhibited control; read-out: % inhibition at 1 × 10^-7 M
T1 construct: Rat brain protein farnesyltransferase activity is measured; from tissue; host or cells: rat brain
Method: In addition, in vitro inhibition of protein farnesyltransferase may be measured by the following procedure. […] The enzyme is purified according to Reiss, Y., et al., Cell, 62: 81-88 (1990), hereby incorporated by reference, utilizing steps one through three. […]
The % inhibition of protein farnesyltransferase was determined for representative compounds of the invention.

T1 sequence (Q02293 whole entry, the tested form may be a part, one chain of several): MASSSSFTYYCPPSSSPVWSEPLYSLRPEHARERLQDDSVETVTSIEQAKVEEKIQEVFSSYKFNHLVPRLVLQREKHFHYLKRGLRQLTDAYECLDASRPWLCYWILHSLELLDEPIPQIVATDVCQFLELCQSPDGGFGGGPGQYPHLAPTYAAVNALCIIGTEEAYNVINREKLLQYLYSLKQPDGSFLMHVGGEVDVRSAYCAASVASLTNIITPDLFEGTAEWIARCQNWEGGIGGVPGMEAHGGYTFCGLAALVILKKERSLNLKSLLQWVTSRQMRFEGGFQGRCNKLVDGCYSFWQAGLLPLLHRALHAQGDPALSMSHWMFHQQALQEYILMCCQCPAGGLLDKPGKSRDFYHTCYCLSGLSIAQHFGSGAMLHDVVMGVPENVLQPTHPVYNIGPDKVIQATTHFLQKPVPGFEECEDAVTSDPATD

Row | inhibition at 0.1 µM | SMILES
1 | 43% | CSCC[C@H](NC(=O)C1=C(c2ccccc2C)CN(C(=O)C=Cc2cncs2)CC1)C(=O)O [Example 2, N-4-[1-(3-[5-thiazolyl]acryloyl)-3-(2-methylphenyl)-1,2,5,6-tetrahydroisonicotinyl]methionine]
2 | 100% | CSCC[C@H](NC(=O)C1=C(c2ccccc2C)CN(C(=O)OCCCC2CCCCC2)CC1)C(=O)O [Example 1, N-4-[1-(3-cyclohexylpropyloxycarbonyl)-3-(2-methylphenyl)-1,2,5,6-tetrahydroisonicotinyl]methionine]
3 | 55% | CSCC[C@H](NC(=O)C1=C(c2ccccc2C)CN(CCCc2ccccc2)CC1)C(=O)O [Example 4, N-[N'-(3-phenylpropyl)-3-(2-methylphenyl)-1,2,5,6-tetrahydroisonicotinyl]methionine]
4 | 100% | CSCC[C@H](NC(=O)C1=C(c2ccccc2C)CN(C(=O)N(Cc2ccccc2)Cc2cncs2)CC1)C(=O)O [Example 3, N-4-[1-(N'-benzyl-5-thiazolmethylaminocarbonyl)-3-(2-methylphenyl)-1,2,5,6-tetrahydroisonicotinyl]methionine]

same assay, conditions: read-out: % inhibition at 1 × 10^-7 M

Row | SMILES | inhibition at 0.1 µM
5 | CSCC[C@H](NC(=O)C1=C(c2ccccc2C)CN(C(=O)Cc2cccnc2)CC1)C(=O)O [Example 5, N-[N'-(3-pyridylacetyl)-3-(2-methylphenyl)-1,2,5,6-tetrahydroisonicotinyl]methionine] | 94%
6 | CSCC[C@H](NC(=O)C1=C(c2ccccc2C)CN(S(=O)(=O)N(Cc2ccccc2)Cc2cncs2)CC1)C(=O)O [Example 6, N-4-[1-(N'-benzyl-5-thiazolmethylaminosulfamoyl)-3-(2-methylphenyl)-1,2,5,6-tetrahydroisonicotinyl]methionine] | 90%
